Here are results for one compound from patent publication US11814412B2, “Artificial proteins and compositions and methods thereof” (The Trustees of the University of Pennsylvania, priority 2015, dated 2023).

The target in this experiment is 3M, mammalian maquette MR reporter (de novo heme-binding maquette protein). To be noted: read-out: Kd (heme-binding affinity), current (preliminary) 3M before directed evolution.

For orientation: Kd means the equilibrium constant for the complex coming apart.

`C=CC1=C(C)c2cc3[nH]c(cc4nc(cc5[nH]c(cc1n2)c(C)c5CCC(=O)O)C(CCC(=O)O)=C4C)c(C)c3C=C.[Fe]` [heme]: the Kd was approximately 1 µM.
